Measured values reported in PMC4016962 (Molecules, 2014).

target: T1, B. anthracis DHFR (Bacillus anthracis, UniProt Q81R22); assay: biochemical
T1 construct: gene dfrA
T1 sequence (Q81R22 1-162): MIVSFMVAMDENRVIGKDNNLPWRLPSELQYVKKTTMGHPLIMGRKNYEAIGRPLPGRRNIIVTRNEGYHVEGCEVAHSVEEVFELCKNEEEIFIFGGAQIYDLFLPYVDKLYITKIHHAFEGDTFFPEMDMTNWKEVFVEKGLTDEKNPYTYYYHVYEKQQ

| Compound | Ki [nM] |
| --- | --- |
| COC(=O)CC1c2ccccc2C=NN1C(=O)/C=C/c1cc(Cc2cnc(N)nc2N)cc(OC)c1OC (racemic) [11c, Methyl (±)-(E)-2-(2-(3-(5-((2,4-Diaminopyrimidin-5-yl)methyl)-2,3-dimethoxyphenyl)acryloyl)-phthal-azin-2(1H)-yl)acetate] | 20 ± 0.3 |
| CCOC(=O)CC1c2ccccc2C=NN1C(=O)/C=C/c1cc(Cc2cnc(N)nc2N)cc(OC)c1OC (racemic) [11b, Ethyl (±)-(E)-2-(2-(3-(5-((2,4-Diaminopyrimidin-5-yl)methyl)-(2,3-dimethoxyphenyl)acryloyl)-phthal-azin-2(1H)-yl)acetate] | 24.9 ± 0.3 |
| CCC1c2ccccc2C=NN1C(=O)/C=C/c1cc(Cc2cnc(N)nc2N)cc(OC)c1OC (racemic) [6b, (±)-(E)-3-(5-((2,4-Diaminopyrimidin-5-yl)methyl)-2,3-dimethoxyphenyl)-1-(1-ethylphthalazin-2(1H)-yl)prop-2-en-1-one] | 6.8 ± 0.2 |
| COc1cc(Cc2cnc(N)nc2N)cc(/C=C/C(=O)N2N=Cc3ccccc3C2c2ccccn2)c1OC (racemic) [6h, (±)-(E)-3-(5-((2,4-Diaminopyrimidin-5-yl)methyl)-2,3-dimethoxyphenyl)-1-(1-(pyridin-2-yl)phthalazin-2(1H)-yl)prop-2-en-1-one] | 9 ± 0.2 |
| COc1cc(Cc2cnc(N)nc2N)cc(/C=C/C(=O)N2N=Cc3ccccc3C2c2ccco2)c1OC (racemic) [6f, (±)-(E)-3-(5-((2,4-Diaminopyrimidin-5-yl)methyl)-2,3-dimethoxyphenyl)-1-(1-(furan-2-yl)phthalazin-2(1H)-yl)prop-2-en-1-one] | 5.9 ± 0.2 |
| CCCCC1c2ccccc2C=NN1C(=O)/C=C/c1cc(Cc2cnc(N)nc2N)cc(OC)c1OC (racemic) [6c, (±)-(E)-1-(1-n-Butylphthalazin-2(1H)-yl)-3-(5-((2,4-diaminopyrimidin-5-yl)methyl)-2,3-dimethoxyphenyl)prop-2-en-1-one] | 7.9 ± 0.2 |
| COc1cc(Cc2cnc(N)nc2N)cc(/C=C/C(=O)N2N=Cc3ccccc3C2C)c1OC (racemic) [6a, (±)-(E)-3-(5-((2,4-Diaminopyrimidin-5-yl)methyl)-2,3-dimethoxyphenyl)-1-(1-methylphthalazin-2(1H)-yl)prop-2-en-1-one] | 8.8 ± 0.2 |
| COc1cc(Cc2cnc(N)nc2N)cc(/C=C/C(=O)N2N=Cc3ccccc3C2C2CC2)c1OC (racemic) [6e, (±)-(E)-1-(1-Cyclopropylphthalazin-2(1H)-yl)-3-(5-((2,4-diaminopyrimidin-5-yl)methyl)-2,3-dimethoxyphenyl)prop-2-en-1-one] | 4.9 ± 0.2 |
| CCC(C)C1c2ccccc2C=NN1C(=O)/C=C/c1cc(Cc2cnc(N)nc2N)cc(OC)c1OC (racemic) [6d, (±)-(E)-1-(1-s-Butylphthalazin-2(1H)-yl)-3-(5-((2,4-diaminopyrimidin-5-yl)methyl)-2,3-dimethoxyphenyl)prop-2-en-1-one] | 10.4 ± 0.2 |
| COc1cc(Cc2cnc(N)nc2N)cc(/C=C/C(=O)N2N=Cc3ccccc3C2CC(=O)OC(C)(C)C)c1OC (racemic) [11a, t-Butyl (±)-(E)-2-(2-(3-(5-((2,4-Diaminopyrimidin-5-yl)methyl)-2,3-dimethoxyphenyl)acryloyl)-phthal-azin-2(1H)-yl)acetate] | 59 ± 0.9 |
| COc1cc(Cc2cnc(N)nc2N)cc(/C=C/C(=O)N2N=Cc3ccccc3C2c2cccs2)c1OC (racemic) [6g, (±)-(E)-3-(5-((2,4-Diaminopyrimidin-5-yl)methyl)-2,3-dimethoxyphenyl)-1-(1-(thiophen-2-yl)-phthalazin-2(1H)-yl)prop-2-en-1-one] | 8.4 ± 0.2 |
